# Laboratory results from patent US11884647B2, “Compounds and methods for targeting pathogenic blood vessels” (THE REGENTS OF THE UNIVERSITY OF CALIFORNIA, priority 2019, dated 2024).
# Legend:
# [1] = test system: tumor endothelial cells (LL/2 lung cancer tumor); test: Lung LL2 ex vivo model of tumor angiogenesis; type: cell-based, mouse; settings: for cytotoxicity at 40 µM / cytotoxicity at 20 µM: Mus musculus, Endothelial cell, 48 h, read-out: Cell death; for Cell death: Lung LL2 ex vivo, Conc. 40 μm, drug treatment two days
# In short: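 Mouse LL2 tumor fragments (~0.5×0.5×0.3 mm) embedded in Matrigel and grown in endothelial growth medium at 37° C until endothelial outgrowth (about 4 days) before drug treatment. About 48 h after drug addition, stained 10 min with fluorescein diacetate/propidium iodide; live (green) and dead (red) cells imaged at 2× with fixed channel settings.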
# [2] = test system: tumor endothelial cells (CT26.CL25 colon cancer tumor); test: Colon CT26 ex vivo model of tumor angiogenesis; type: cell-based; settings: Mus musculus, CT26, 48 h, read-out: Cell death
# In short: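 Explant pieces of CT26 tumor (about 0.075 mm^3) were embedded in Matrigel and grown in endothelial growth medium at 37 °C for about 7 days until endothelial outgrowth appeared, then treated. Cell death was read about 48 h after drug addition by fluorescein diacetate (live) and propidium iodide (dead) staining with red/green imaging.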
SMILES,cytotoxicity at 40 µM [1] [%],cytotoxicity at 40 µM [2] [%],Cell death [1] [%],cytotoxicity at 20 µM [1] [%],cytotoxicity at 10 µM [2] [%]
"CCCCOc1ccc(S(=O)(=O)c2cnc3ccc(C(=O)OCC)cc3c2N2CCC(N3CCC(O)CC3)CC2)cc1 [compound 161, ethyl 3-((4-butoxyphenyl)sulfonyl)-4-(4-hydroxy-[1,4′-bipiperidin]-1′-yl)quinoline-6-carboxylate]",90,100,,,
"CCCCOc1ccc(S(=O)(=O)c2cnc3ccc([S+](C)[O-])cc3c2N2CCCN(C)CC2)cc1 (centres unmarked) [compound 163, 3-((4-butoxyphenyl)sulfonyl)-4-(4-methyl-1,4-diazepan-1-yl)-6-(methylsulfinyl)quinoline]",95,100,,,
"CCCCOc1ccc(S(=O)(=O)c2cnc3ccc(S(C)(=O)=O)cc3c2N2CCCN(C)CC2)cc1 [compound 164, 3-((4-butoxyphenyl)sulfonyl)-4-(4-methyl-1,4-diazepan-1-yl)-6-(methylsulfonyl)quinoline]",95,100,,,
"CCN(CC)C(=O)c1ccc2ncc(S(=O)(=O)c3ccc(OC)cc3)c(N3CCCN(C)CC3)c2c1 [compound 165, N,N-diethyl-3-((4-methoxyphenyl)sulfonyl)-4-(4-methyl-1,4-diazepan-1-yl)quinoline-6-carboxamide]",10,10,,,
"CCN(CC)CCNC(=O)c1ccc2ncc(S(=O)(=O)c3ccc(OC)cc3)c(N3CCCN(C)CC3)c2c1 [compound 166, N-(2-(diethylamino)ethyl)-3-((4-methoxyphenyl)sulfonyl)-4-(4-methyl-1,4-diazepan-1-yl)quinoline-6-carboxamide]",10,60,,,
"CCCCOc1ccc(S(=O)(=O)c2cnc3ccc(C(=O)OCC)cc3c2N2CCSCC2)cc1 [compound 191, ethyl 3-((4-butoxyphenyl)sulfonyl)-4-thiomorpholinoquinoline-6-carboxylate]",30,10,,,
"CCCCOc1ccc(S(=O)(=O)c2cnc3ccc(C(=O)NC(C)C)cc3c2N2CCCN(C)CC2)cc1 [compound 192, 3-((4-butoxyphenyl)sulfonyl)-N-isopropyl-4-(4-methyl-1,4-diazepan-1-yl)quinoline-6-carboxamide]",60,10,,,
"CCCCOc1ccc(S(=O)(=O)c2cnc3ccc(C(=O)N(CC)CC)cc3c2N2CCC(N3CCCCC3)CC2)cc1 [compound 201, 4-([1,4′-bipiperidin]-1′-yl)-3-((4-butoxyphenyl)sulfonyl)-N,N-diethylquinoline-6-carboxamide]",30,10,,,
"CCCCOc1ccc(S(=O)(=O)c2cnc3ccc(C(=O)NCCO)cc3c2N2CCC(N3CCCCC3)CC2)cc1 [compound 202, 4-([1,4′-bipiperidin]-1′-yl)-3-((4-butoxyphenyl)sulfonyl)-N-(2-hydroxyethyl)quinoline-6-carboxamide]",,10,30,,
"CCCCOc1ccc(S(=O)(=O)c2cnc3ccc(SC)cc3c2N2CCCN(CCN3CCCCC3)CC2)cc1 [compound 206, 3-((4-butoxyphenyl)sulfonyl)-6-(methylthio)-4-(4-(2-(piperidin-1-yl)ethyl)-1,4-diazepan-1-yl)quinoline]",,100,,30,
"CCCCOc1ccc(S(=O)(=O)c2cnc3ccc([S+](C)[O-])cc3c2N2CCC(N3CCCC(O)C3)CC2)cc1 (centres unmarked) [compound 208, 1′-(3-((4-butoxyphenyl)sulfonyl)-6-(methylsulfinyl)quinolin-4-yl)-[1,4′-bipiperidin]-3-ol]",50,20,,,
"CCCCOc1ccc(S(=O)(=O)c2cnc3ccc([S+](C)[O-])cc3c2N2CCCN(CCN3CCCCC3)CC2)cc1 (centres unmarked) [compound 209, 3-((4-butoxyphenyl)sulfonyl)-6-(methylsulfinyl)-4-(4-(2-(piperidin-1-yl)ethyl)-1,4-diazepan-1-yl)quinoline]",60,90,,,
"CCCCOc1ccc(S(=O)(=O)c2cnc3ccc([S+](C)[O-])cc3c2N2CCCN(CCN3CCCC3)CC2)cc1 (centres unmarked) [compound 210, 3-((4-butoxyphenyl)sulfonyl)-6-(methylsulfinyl)-4-(4-(2-(pyrrolidin-1-yl)ethyl)-1,4-diazepan-1-yl)quinoline]",50,70,,,
"CCCCOc1ccc(S(=O)(=O)c2cnc3ccc(C(=O)OCC)cc3c2N2CCC(N3CCCN(C)CC3)CC2)cc1 [compound 211, ethyl 3-((4-butoxyphenyl)sulfonyl)-4-(4-(4-methyl-1,4-diazepan-1-yl)piperidin-1-yl)quinoline-6-carboxylate]",100,100,,,
"CCCCOc1ccc(S(=O)(=O)c2cnc3ccc(C(=O)OCC)cc3c2N2CCC(N3CCOCC3)CC2)cc1 [compound 212, ethyl 3-((4-butoxyphenyl)sulfonyl)-4-(4-morpholinopiperidin-1-yl)quinoline-6-carboxylate]",50,10,,,
"CCCCOc1ccc(S(=O)(=O)c2cnc3ccc(C(=O)OCC)cc3c2N2CCC(N3CCN(CCO)CC3)CC2)cc1 [compound 214, ethyl 3-((4-butoxyphenyl)sulfonyl)-4-(4-(4-(2-hydroxyethyl)piperazin-1-yl)piperidin-1-yl)quinoline-6-carboxylate]",100,100,,,
"CCCCOc1ccc(S(=O)(=O)c2cnc3ccc(C(=O)OCC)cc3c2N2CCC(N3CCC(c4ccccc4)CC3)CC2)cc1 [compound 215, ethyl 3-((4-butoxyphenyl)sulfonyl)-4-(4-phenyl-[1,4′-bipiperidin]-1′-yl)quinoline-6-carboxylate]",,20,30,,
"CCCCCCCOc1ccc(S(=O)(=O)c2cnc3ccc(SC)cc3c2N2CCCN(C)CC2)cc1 [compound 218, 3-((4-(heptyloxy)phenyl)sulfonyl)-4-(4-methyl-1,4-diazepan-1-yl)-6-(methylthio)quinoline]",100,90,,,
"CCCCCCCOc1ccc(S(=O)(=O)c2cnc3ccc(SC)cc3c2N2CCC(N3CCCCC3)CC2)cc1 [compound 219, 4-([1,4′-bipiperidin]-1′-yl)-3-((4-(heptyloxy)phenyl)sulfonyl)-6-(methylthio)quinoline]",60,90,,,
"CCCCCCCOc1ccc(S(=O)(=O)c2cnc3ccc([S+](C)[O-])cc3c2N2CCCN(C)CC2)cc1 (centres unmarked) [compound 220, 3-((4-(heptyloxy)phenyl)sulfonyl)-4-(4-methyl-1,4-diazepan-1-yl)-6-(methylsulfinyl)quinoline]",100,100,,,
"CCCCCCCOc1ccc(S(=O)(=O)c2cnc3ccc([S+](C)[O-])cc3c2N2CCC(N3CCCCC3)CC2)cc1 (centres unmarked) [compound 221, 4-([1,4′-bipiperidin]-1′-yl)-3-((4-(heptyloxy)phenyl)sulfonyl)-6-(methylsulfinyl)quinoline]",100,100,,,
"CCCCOc1ccc(S(=O)(=O)c2cnc3ccc([S+](C)[O-])cc3c2N2CCC(N3CCC(O)(c4ccccc4)CC3)CC2)cc1 (centres unmarked) [compound 238, 1′-(3-((4-butoxyphenyl)sulfonyl)-6-(methylsulfinyl)quinolin-4-yl)-4-phenyl-[1,4′-bipiperidin]-4-ol]",100,,,,10
"CCCCOc1ccc(S(=O)(=O)c2cnc3ccc([S+](C)[O-])cc3c2N2CCC(N3CCCN(C)CC3)CC2)cc1 (centres unmarked) [compound 241, 3-((4-butoxyphenyl)sulfonyl)-4-(4-(4-methyl-1,4-diazepan-1-yl)piperidin-1-yl)-6-(methylsulfinyl)quinoline]",40,,,,0
"CCCCCCCOc1ccc(S(=O)(=O)c2cnc3ccc([S+](C)[O-])cc3c2N2CCC(N3CCN(C)CC3)CC2)cc1 (centres unmarked) [compound 253, 3-((4-(heptyloxy)phenyl)sulfonyl)-4-(4-(4-methylpiperazin-1-yl)piperidin-1-yl)-6-(methylsulfinyl)quinoline]",,,,100,80
"CCCCCCCOc1ccc(S(=O)(=O)c2cnc3ccc([S+](C)[O-])cc3c2N2CCC(N3CCCC(O)C3)CC2)cc1 (centres unmarked) [compound 254, 1′-(3-((4-(heptyloxy)phenyl)sulfonyl)-6-(methylsulfinyl)quinolin-4-yl)-[1,4′-bipiperidin]-3-ol]",,,,100,40
"CCCCCCCOc1ccc(S(=O)(=O)c2cnc3ccc([S+](C)[O-])cc3c2N2CCCN(CCN3CCCCC3)CC2)cc1 (centres unmarked) [compound 255, 3-((4-(heptyloxy)phenyl)sulfonyl)-6-(methylsulfinyl)-4-(4-(2-(piperidin-1-yl)ethyl)-1,4-diazepan-1-yl)quinoline]",,,,10,0
"CCCCCCCOc1ccc(S(=O)(=O)c2cnc3ccc([S+](C)[O-])cc3c2N2CCC(N3CCCN(C)CC3)CC2)cc1 (centres unmarked) [compound 256, 3-((4-(heptyloxy)phenyl)sulfonyl)-4-(4-(4-methyl-1,4-diazepan-1-yl)piperidin-1-yl)-6-(methylsulfinyl)quinoline]",,,,100,90
"CCCCCCCOc1ccc(S(=O)(=O)c2cnc3ccc([S+](C)[O-])cc3c2N2CCC(N3CCN(CCO)CC3)CC2)cc1 (centres unmarked) [compound 257, 2-(4-(1-(3-((4-(heptyloxy)phenyl)sulfonyl)-6-(methylsulfinyl)quinolin-4-yl)piperidin-4-yl)piperazin-1-yl)ethan-1-ol]",,,,100,100
